Measured values reported in the NIST ThermoML archive (doi:10.1016/j.jct.2012.03.031).
Where “and” joins values, the source holds several entries; their conditions need not be identical. Equal entries are not always repeated. Numbers after ± are expanded uncertainties.

Assay: molar heat capacity at constant pressure
Conditions: 101.33 kPa

CCCCc1ccc(C(=O)Oc2ccc(C#N)c(F)c2)cc1 [4-cyano-3-fluorophenyl 4-butylbenzoate]
Conditions | molar heat capacity at constant pressure
61.92 K, Crystal 1, Small (less than 1 g) adiabatic calorimetry | 106.31 ± 0.83 J/K/mol
63.2 K, Crystal 1, Small (less than 1 g) adiabatic calorimetry | 108.1 ± 0.85 J/K/mol
63.41 K, Crystal 1, Small (less than 1 g) adiabatic calorimetry | 108.62 ± 0.85 J/K/mol
63.57 K, Crystal 2, Small (less than 1 g) adiabatic calorimetry | 113.15 ± 0.88 J/K/mol
64.91 K, Crystal 1, Small (less than 1 g) adiabatic calorimetry | 110.74 ± 0.86 J/K/mol
65.24 K, Crystal 2, Small (less than 1 g) adiabatic calorimetry | 115.68 ± 0.89 J/K/mol
65.3 K, Crystal 1, Small (less than 1 g) adiabatic calorimetry | 111.15 ± 0.86 J/K/mol
66.41 K, Crystal 1, Small (less than 1 g) adiabatic calorimetry | 112.9 ± 0.87 J/K/mol
66.93 K, Crystal 2, Small (less than 1 g) adiabatic calorimetry | 118.1 ± 0.91 J/K/mol
67.38 K, Crystal 1, Small (less than 1 g) adiabatic calorimetry | 114.12 ± 0.88 J/K/mol
67.91 K, Crystal 1, Small (less than 1 g) adiabatic calorimetry | 115.02 ± 0.89 J/K/mol
68.62 K, Crystal 2, Small (less than 1 g) adiabatic calorimetry | 120.58 ± 0.92 J/K/mol
69.41 K, Crystal 1, Small (less than 1 g) adiabatic calorimetry | 117.19 ± 0.9 J/K/mol
69.46 K, Crystal 1, Small (less than 1 g) adiabatic calorimetry | 117 ± 0.9 J/K/mol
70 K, Crystal 1, Vacuum adiabatic calorimetry | 117.76 ± 0.78 J/K/mol
70 K, Crystal 2, Vacuum adiabatic calorimetry | 122.57 ± 0.81 J/K/mol
70.32 K, Crystal 2, Small (less than 1 g) adiabatic calorimetry | 123.03 ± 0.94 J/K/mol
70.92 K, Crystal 1, Small (less than 1 g) adiabatic calorimetry | 119.27 ± 0.91 J/K/mol
71.53 K, Crystal 1, Small (less than 1 g) adiabatic calorimetry | 119.9 ± 0.91 J/K/mol
72.11 K, Crystal 2, Small (less than 1 g) adiabatic calorimetry | 125.5 ± 0.95 J/K/mol
72.44 K, Crystal 1, Small (less than 1 g) adiabatic calorimetry | 121.32 ± 0.92 J/K/mol
73.59 K, Crystal 1, Small (less than 1 g) adiabatic calorimetry | 122.75 ± 0.93 J/K/mol
73.96 K, Crystal 1, Small (less than 1 g) adiabatic calorimetry | 123.47 ± 0.94 J/K/mol
74.05 K, Crystal 2, Small (less than 1 g) adiabatic calorimetry | 128.27 ± 0.97 J/K/mol
75.49 K, Crystal 1, Small (less than 1 g) adiabatic calorimetry | 125.48 ± 0.95 J/K/mol
75.66 K, Crystal 1, Small (less than 1 g) adiabatic calorimetry | 125.55 ± 0.95 J/K/mol
76.08 K, Crystal 2, Small (less than 1 g) adiabatic calorimetry | 131.11 ± 0.99 J/K/mol
77.02 K, Crystal 1, Small (less than 1 g) adiabatic calorimetry | 127.52 ± 0.96 J/K/mol
77.72 K, Crystal 1, Small (less than 1 g) adiabatic calorimetry | 128.25 ± 0.97 J/K/mol
78.1 K, Crystal 2, Small (less than 1 g) adiabatic calorimetry | 133.74 ± 1 J/K/mol
78.56 K, Crystal 1, Small (less than 1 g) adiabatic calorimetry | 129.55 ± 0.97 J/K/mol
79.79 K, Crystal 1, Small (less than 1 g) adiabatic calorimetry | 130.94 ± 0.98 J/K/mol
80 K, Crystal 1, Vacuum adiabatic calorimetry | 131.22 ± 0.86 J/K/mol
80 K, Crystal 2, Vacuum adiabatic calorimetry | 136.34 ± 0.89 J/K/mol
80.1 K, Crystal 1, Small (less than 1 g) adiabatic calorimetry | 131.58 ± 0.99 J/K/mol
80.14 K, Crystal 2, Small (less than 1 g) adiabatic calorimetry | 136.53 ± 1 J/K/mol
81.65 K, Crystal 1, Small (less than 1 g) adiabatic calorimetry | 133.56 ± 1 J/K/mol
81.86 K, Crystal 1, Small (less than 1 g) adiabatic calorimetry | 133.65 ± 1 J/K/mol
82.17 K, Crystal 2, Small (less than 1 g) adiabatic calorimetry | 139.24 ± 1 J/K/mol
83.21 K, Crystal 1, Small (less than 1 g) adiabatic calorimetry | 135.55 ± 1 J/K/mol
83.93 K, Crystal 1, Small (less than 1 g) adiabatic calorimetry | 136.28 ± 1 J/K/mol
84.22 K, Crystal 2, Small (less than 1 g) adiabatic calorimetry | 141.95 ± 1.1 J/K/mol
84.77 K, Crystal 1, Small (less than 1 g) adiabatic calorimetry | 137.59 ± 1 J/K/mol
86 K, Crystal 1, Small (less than 1 g) adiabatic calorimetry | 138.9 ± 1 J/K/mol
86.27 K, Crystal 2, Small (less than 1 g) adiabatic calorimetry | 144.59 ± 1.1 J/K/mol
86.34 K, Crystal 1, Small (less than 1 g) adiabatic calorimetry | 139.51 ± 1 J/K/mol
87.92 K, Crystal 1, Small (less than 1 g) adiabatic calorimetry | 141.49 ± 1.1 J/K/mol
88.19 K, Crystal 1, Small (less than 1 g) adiabatic calorimetry | 141.58 ± 1.1 J/K/mol
88.32 K, Crystal 2, Small (less than 1 g) adiabatic calorimetry | 147.21 ± 1.1 J/K/mol
89.5 K, Crystal 1, Small (less than 1 g) adiabatic calorimetry | 143.41 ± 1.1 J/K/mol
90 K, Crystal 1, Vacuum adiabatic calorimetry | 143.78 ± 0.93 J/K/mol
90 K, Crystal 2, Vacuum adiabatic calorimetry | 149.41 ± 0.96 J/K/mol
90.38 K, Crystal 2, Small (less than 1 g) adiabatic calorimetry | 149.91 ± 1.1 J/K/mol
90.49 K, Crystal 1, Small (less than 1 g) adiabatic calorimetry | 144.38 ± 1.1 J/K/mol
91.1 K, Crystal 1, Small (less than 1 g) adiabatic calorimetry | 145.38 ± 1.1 J/K/mol
92.46 K, Crystal 2, Small (less than 1 g) adiabatic calorimetry | 152.54 ± 1.1 J/K/mol
92.69 K, Crystal 1, Small (less than 1 g) adiabatic calorimetry | 147.26 ± 1.1 J/K/mol
92.79 K, Crystal 1, Small (less than 1 g) adiabatic calorimetry | 147.14 ± 1.1 J/K/mol
94.3 K, Crystal 1, Small (less than 1 g) adiabatic calorimetry | 149.22 ± 1.1 J/K/mol
94.53 K, Crystal 2, Small (less than 1 g) adiabatic calorimetry | 155.21 ± 1.1 J/K/mol
95.09 K, Crystal 1, Small (less than 1 g) adiabatic calorimetry | 149.9 ± 1.1 J/K/mol
95.91 K, Crystal 1, Small (less than 1 g) adiabatic calorimetry | 151.12 ± 1.1 J/K/mol
96.62 K, Crystal 2, Small (less than 1 g) adiabatic calorimetry | 157.81 ± 1.1 J/K/mol
97.38 K, Crystal 1, Small (less than 1 g) adiabatic calorimetry | 152.62 ± 1.1 J/K/mol
97.53 K, Crystal 1, Small (less than 1 g) adiabatic calorimetry | 153.02 ± 1.1 J/K/mol
98.72 K, Crystal 2, Small (less than 1 g) adiabatic calorimetry | 160.47 ± 1.2 J/K/mol
99.17 K, Crystal 1, Small (less than 1 g) adiabatic calorimetry | 154.93 ± 1.1 J/K/mol
99.68 K, Crystal 1, Small (less than 1 g) adiabatic calorimetry | 155.3 ± 1.1 J/K/mol
100 K, Crystal 1, Vacuum adiabatic calorimetry | 155.66 ± 0.99 J/K/mol
100 K, Crystal 2, Vacuum adiabatic calorimetry | 162.05 ± 1 J/K/mol
100.8 K, Crystal 1, Small (less than 1 g) adiabatic calorimetry | 156.84 ± 1.1 J/K/mol
100.83 K, Crystal 2, Small (less than 1 g) adiabatic calorimetry | 163.07 ± 1.2 J/K/mol
101.98 K, Crystal 1, Small (less than 1 g) adiabatic calorimetry | 157.93 ± 1.1 J/K/mol
102.45 K, Crystal 1, Small (less than 1 g) adiabatic calorimetry | 158.74 ± 1.1 J/K/mol
102.94 K, Crystal 2, Small (less than 1 g) adiabatic calorimetry | 165.76 ± 1.2 J/K/mol
104.1 K, Crystal 1, Small (less than 1 g) adiabatic calorimetry | 160.69 ± 1.2 J/K/mol
104.29 K, Crystal 1, Small (less than 1 g) adiabatic calorimetry | 160.64 ± 1.2 J/K/mol
105.07 K, Crystal 2, Small (less than 1 g) adiabatic calorimetry | 168.36 ± 1.2 J/K/mol
105.76 K, Crystal 1, Small (less than 1 g) adiabatic calorimetry | 162.57 ± 1.2 J/K/mol
106.6 K, Crystal 1, Small (less than 1 g) adiabatic calorimetry | 163.27 ± 1.2 J/K/mol
107.21 K, Crystal 2, Small (less than 1 g) adiabatic calorimetry | 170.99 ± 1.2 J/K/mol
107.43 K, Crystal 1, Small (less than 1 g) adiabatic calorimetry | 164.48 ± 1.2 J/K/mol
108.92 K, Crystal 1, Small (less than 1 g) adiabatic calorimetry | 165.88 ± 1.2 J/K/mol
109.11 K, Crystal 1, Small (less than 1 g) adiabatic calorimetry | 166.36 ± 1.2 J/K/mol
109.36 K, Crystal 2, Small (less than 1 g) adiabatic calorimetry | 173.6 ± 1.2 J/K/mol
110 K, Crystal 1, Vacuum adiabatic calorimetry | 167.09 ± 1.1 J/K/mol
110 K, Crystal 2, Vacuum adiabatic calorimetry | 174.41 ± 1.1 J/K/mol
110.8 K, Crystal 1, Small (less than 1 g) adiabatic calorimetry | 168.33 ± 1.2 J/K/mol
111.24 K, Crystal 1, Small (less than 1 g) adiabatic calorimetry | 168.49 ± 1.2 J/K/mol
111.51 K, Crystal 2, Small (less than 1 g) adiabatic calorimetry | 176.31 ± 1.3 J/K/mol
112.5 K, Crystal 1, Small (less than 1 g) adiabatic calorimetry | 170.17 ± 1.2 J/K/mol
113.57 K, Crystal 1, Small (less than 1 g) adiabatic calorimetry | 171.15 ± 1.2 J/K/mol
113.68 K, Crystal 2, Small (less than 1 g) adiabatic calorimetry | 178.98 ± 1.3 J/K/mol
114.2 K, Crystal 1, Small (less than 1 g) adiabatic calorimetry | 172.16 ± 1.2 J/K/mol
115.87 K, Crystal 2, Small (less than 1 g) adiabatic calorimetry | 181.77 ± 1.3 J/K/mol
115.91 K, Crystal 1, Small (less than 1 g) adiabatic calorimetry | 173.74 ± 1.2 J/K/mol and 174.07 ± 1.2 J/K/mol
117.64 K, Crystal 1, Small (less than 1 g) adiabatic calorimetry | 175.95 ± 1.2 J/K/mol
118.06 K, Crystal 2, Small (less than 1 g) adiabatic calorimetry | 184.44 ± 1.3 J/K/mol
118.26 K, Crystal 1, Small (less than 1 g) adiabatic calorimetry | 176.37 ± 1.3 J/K/mol
119.36 K, Crystal 1, Small (less than 1 g) adiabatic calorimetry | 177.93 ± 1.3 J/K/mol
120 K, Crystal 1, Vacuum adiabatic calorimetry | 178.29 ± 1.1 J/K/mol
120 K, Crystal 2, Vacuum adiabatic calorimetry | 186.87 ± 1.2 J/K/mol
120.27 K, Crystal 2, Small (less than 1 g) adiabatic calorimetry | 187.2 ± 1.3 J/K/mol
120.61 K, Crystal 1, Small (less than 1 g) adiabatic calorimetry | 178.97 ± 1.3 J/K/mol
121.1 K, Crystal 1, Small (less than 1 g) adiabatic calorimetry | 179.82 ± 1.3 J/K/mol
122.48 K, Crystal 2, Small (less than 1 g) adiabatic calorimetry | 189.96 ± 1.4 J/K/mol
122.85 K, Crystal 1, Small (less than 1 g) adiabatic calorimetry | 181.85 ± 1.3 J/K/mol
122.98 K, Crystal 1, Small (less than 1 g) adiabatic calorimetry | 181.61 ± 1.3 J/K/mol
124.61 K, Crystal 1, Small (less than 1 g) adiabatic calorimetry | 182.88 ± 1.3 J/K/mol
124.71 K, Crystal 2, Small (less than 1 g) adiabatic calorimetry | 192.76 ± 1.4 J/K/mol
125.35 K, Crystal 1, Small (less than 1 g) adiabatic calorimetry | 184.23 ± 1.3 J/K/mol
126.37 K, Crystal 1, Small (less than 1 g) adiabatic calorimetry | 185.75 ± 1.3 J/K/mol
126.95 K, Crystal 2, Small (less than 1 g) adiabatic calorimetry | 195.55 ± 1.4 J/K/mol
127.73 K, Crystal 1, Small (less than 1 g) adiabatic calorimetry | 186.92 ± 1.3 J/K/mol
128.14 K, Crystal 1, Small (less than 1 g) adiabatic calorimetry | 187.6 ± 1.3 J/K/mol
129.2 K, Crystal 2, Small (less than 1 g) adiabatic calorimetry | 198.34 ± 1.4 J/K/mol
129.93 K, Crystal 1, Small (less than 1 g) adiabatic calorimetry | 189.59 ± 1.3 J/K/mol
130 K, Crystal 1, Vacuum adiabatic calorimetry | 189.39 ± 1.2 J/K/mol
130 K, Crystal 2, Vacuum adiabatic calorimetry | 199.38 ± 1.3 J/K/mol
130.12 K, Crystal 1, Small (less than 1 g) adiabatic calorimetry | 189.53 ± 1.3 J/K/mol
131.47 K, Crystal 2, Small (less than 1 g) adiabatic calorimetry | 201.3 ± 1.4 J/K/mol
131.72 K, Crystal 1, Small (less than 1 g) adiabatic calorimetry | 191.62 ± 1.4 J/K/mol
132.53 K, Crystal 1, Small (less than 1 g) adiabatic calorimetry | 192.14 ± 1.4 J/K/mol
133.51 K, Crystal 1, Small (less than 1 g) adiabatic calorimetry | 193.32 ± 1.4 J/K/mol
133.74 K, Crystal 2, Small (less than 1 g) adiabatic calorimetry | 204.25 ± 1.4 J/K/mol
134.94 K, Crystal 1, Small (less than 1 g) adiabatic calorimetry | 194.79 ± 1.4 J/K/mol
135.4 K, Crystal 1, Small (less than 1 g) adiabatic calorimetry | 195.42 ± 1.4 J/K/mol
136.03 K, Crystal 2, Small (less than 1 g) adiabatic calorimetry | 207.21 ± 1.5 J/K/mol
137.37 K, Crystal 1, Small (less than 1 g) adiabatic calorimetry | 197.39 ± 1.4 J/K/mol and 197.54 ± 1.4 J/K/mol
138.33 K, Crystal 2, Small (less than 1 g) adiabatic calorimetry | 210.2 ± 1.5 J/K/mol
139.32 K, Crystal 1, Small (less than 1 g) adiabatic calorimetry | 199.71 ± 1.4 J/K/mol
139.8 K, Crystal 1, Small (less than 1 g) adiabatic calorimetry | 200.05 ± 1.4 J/K/mol
140 K, Crystal 1, Vacuum adiabatic calorimetry | 200.27 ± 1.2 J/K/mol
140 K, Crystal 2, Vacuum adiabatic calorimetry | 212.43 ± 1.3 J/K/mol
140.64 K, Crystal 2, Small (less than 1 g) adiabatic calorimetry | 213.3 ± 1.5 J/K/mol
